Structures can show the parent of a compound that is named as a salt.
Tests used:
Format in all cases: biochemical
[1] = biological target: T1, human FGFR1 (Homo sapiens, UniProt P11362); assay: 33P isotope-labeled kinase activity test (Reaction Biology Corp), wild-type FGFR1; settings: 33P-ATP 5 μM, substrate pEY + Mn, 120 minutes at room temperature
T1 construct: purchased Invitrogen PV3146
Description: The IC50 value is determined using ^33P isotope-labeled kinase activity test (Reaction Biology Corp) to evaluate the inhibitory ability of the compounds to be tested on human FGFR1 and FGFR4.
Buffer conditions: 20 mM 4-(2-hydroxyethyl)-1-piperazineethanesulfonic acid (Hepes) (pH 7.5), 10 mM MgCl2, 1 mM ethylene glycol-bis-(2-aminoethyl ether)tetraacetic acid (EGTA), 0.02% polyoxyethylene lauryl ether (Brij35), 0.02 mg/ml bovine serum albumin (BSA), 0.1 mM sodium vanadate (Na3VO4), 2 mM dithiothreitol (DTT), and 1% DMSO.
Test steps: At room temperature, the compounds to be tested are dissolved in DMSO to prepare a 10 mM solution for use. The substrate is dissolved in the newly prepared buffer, and the kinase to be tested is added and mixed well. The DMSO solution in which the compounds to be tested are dissolved is added to the above-mentioned homogeneous reaction solution using acoustic technology (Echo 550). […] After incubating for 15 minutes, ^33P-ATP (activity: 0.01 μCi/μl, with corresponding concentration being listed in table 1) is added to start the reaction. The supplier article number, batch number, and the concentration information in the reaction solution of FGFR1, FGFR4 and substrates thereof are listed in table 1. […] The kinase activity data is expressed by comparing the kinase activity of the groups containing the compounds to be tested with that of the blank group (containing only DMSO). The IC50 value is obtained by curve fitting using Prism4 software (GraphPad), and the experimental results are shown in table 2.

[2] = biological target: T2, FGFR2 (Homo sapiens, UniProt P21802); assay: 33P isotope-labeled kinase activity test (Reaction Biology Corp), wild-type FGFR2; settings: for Selectivity FGFR1/2: ratio of IC50 FGFR1 to IC50 FGFR2; for IC50: wild-type kinase, 33P-ATP 5 μM, substrate pEY + Mn, 120 minutes at room temperature
T2 construct: purchased Invitrogen PV3368
T2 sequence (P21802 22-821): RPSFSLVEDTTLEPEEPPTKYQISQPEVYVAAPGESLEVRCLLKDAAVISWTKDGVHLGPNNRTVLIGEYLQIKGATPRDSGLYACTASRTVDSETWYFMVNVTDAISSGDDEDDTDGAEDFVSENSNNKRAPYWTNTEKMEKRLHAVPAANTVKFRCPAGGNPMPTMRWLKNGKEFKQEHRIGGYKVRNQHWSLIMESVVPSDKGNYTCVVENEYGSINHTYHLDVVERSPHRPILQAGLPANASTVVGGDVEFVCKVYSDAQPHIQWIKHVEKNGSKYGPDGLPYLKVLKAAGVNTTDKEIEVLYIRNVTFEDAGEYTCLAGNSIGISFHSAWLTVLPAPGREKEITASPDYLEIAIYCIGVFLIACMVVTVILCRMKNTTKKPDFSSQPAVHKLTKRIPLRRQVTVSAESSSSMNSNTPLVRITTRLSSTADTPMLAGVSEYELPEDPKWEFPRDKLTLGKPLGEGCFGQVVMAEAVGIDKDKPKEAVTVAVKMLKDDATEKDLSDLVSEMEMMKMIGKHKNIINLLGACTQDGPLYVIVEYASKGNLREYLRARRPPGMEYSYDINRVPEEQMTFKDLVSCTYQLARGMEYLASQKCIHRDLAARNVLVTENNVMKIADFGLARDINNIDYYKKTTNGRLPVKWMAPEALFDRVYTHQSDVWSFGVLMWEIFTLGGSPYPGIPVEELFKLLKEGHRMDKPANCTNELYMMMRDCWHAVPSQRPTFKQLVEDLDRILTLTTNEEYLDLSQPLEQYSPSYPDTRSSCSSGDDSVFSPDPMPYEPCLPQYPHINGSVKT

[3] = biological target: T3, FGFR3 (Homo sapiens, UniProt P22607); assay: 33P isotope-labeled kinase activity test (Reaction Biology Corp), wild-type FGFR3; settings: for Selectivity FGFR1/3: ratio of IC50 FGFR1 to IC50 FGFR3; for IC50: wild-type kinase, 33P-ATP 30 μM, substrate pEY + Mn, 120 minutes at room temperature
T3 construct: purchased Invitrogen PV3145
T3 sequence (P22607 23-806): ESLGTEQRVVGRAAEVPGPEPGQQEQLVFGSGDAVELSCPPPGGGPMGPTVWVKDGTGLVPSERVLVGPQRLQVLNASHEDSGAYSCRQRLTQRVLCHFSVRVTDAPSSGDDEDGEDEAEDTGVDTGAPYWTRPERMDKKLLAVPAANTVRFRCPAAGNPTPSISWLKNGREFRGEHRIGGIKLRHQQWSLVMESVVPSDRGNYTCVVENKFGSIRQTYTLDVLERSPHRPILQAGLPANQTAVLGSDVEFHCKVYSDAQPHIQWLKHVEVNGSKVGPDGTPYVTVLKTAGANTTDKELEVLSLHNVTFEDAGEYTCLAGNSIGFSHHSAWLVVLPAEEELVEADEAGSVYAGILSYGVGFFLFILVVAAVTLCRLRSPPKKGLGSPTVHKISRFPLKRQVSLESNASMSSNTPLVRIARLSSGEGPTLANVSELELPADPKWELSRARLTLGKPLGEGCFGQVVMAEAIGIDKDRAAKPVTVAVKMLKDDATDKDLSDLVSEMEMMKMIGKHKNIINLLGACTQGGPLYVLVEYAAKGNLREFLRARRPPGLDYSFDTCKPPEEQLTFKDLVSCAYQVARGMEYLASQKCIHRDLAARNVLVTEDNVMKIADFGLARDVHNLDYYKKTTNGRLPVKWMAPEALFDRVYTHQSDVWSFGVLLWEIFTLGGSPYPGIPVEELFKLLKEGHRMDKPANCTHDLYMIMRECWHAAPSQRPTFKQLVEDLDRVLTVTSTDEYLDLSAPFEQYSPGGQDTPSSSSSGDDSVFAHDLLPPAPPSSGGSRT

T1 sequence (P11362 22-822): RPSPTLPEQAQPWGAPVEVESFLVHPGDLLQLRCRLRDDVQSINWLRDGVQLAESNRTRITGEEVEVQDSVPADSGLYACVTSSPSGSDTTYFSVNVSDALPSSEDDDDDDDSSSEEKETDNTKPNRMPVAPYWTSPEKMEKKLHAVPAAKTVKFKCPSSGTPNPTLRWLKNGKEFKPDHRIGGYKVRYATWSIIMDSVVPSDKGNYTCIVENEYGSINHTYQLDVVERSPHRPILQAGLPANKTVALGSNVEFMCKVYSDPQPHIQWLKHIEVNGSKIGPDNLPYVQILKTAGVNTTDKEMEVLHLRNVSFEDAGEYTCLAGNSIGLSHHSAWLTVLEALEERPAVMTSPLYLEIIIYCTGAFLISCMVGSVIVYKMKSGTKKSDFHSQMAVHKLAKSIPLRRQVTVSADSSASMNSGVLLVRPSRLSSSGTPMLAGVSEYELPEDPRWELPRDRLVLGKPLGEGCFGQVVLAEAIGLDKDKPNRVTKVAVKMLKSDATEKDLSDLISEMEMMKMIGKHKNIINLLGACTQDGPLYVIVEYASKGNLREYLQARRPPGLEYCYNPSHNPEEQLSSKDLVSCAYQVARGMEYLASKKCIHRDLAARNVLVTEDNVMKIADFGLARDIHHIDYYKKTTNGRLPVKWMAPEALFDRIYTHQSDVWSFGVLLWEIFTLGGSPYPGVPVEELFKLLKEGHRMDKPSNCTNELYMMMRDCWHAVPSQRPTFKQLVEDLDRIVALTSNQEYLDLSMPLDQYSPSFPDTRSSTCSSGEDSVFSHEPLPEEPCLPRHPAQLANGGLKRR

| SMILES | IC50 [1] | Selectivity FGFR1/2 [2] | IC50 [2] | Selectivity FGFR1/3 [3] | IC50 [3] |
| --- | --- | --- | --- | --- | --- |
| COc1cc(OC)cc(-c2nc(-c3nc(-c4cn(CC(O)CC(F)(F)F)nc4C)cnc3N)cn(C)c2=O)c1 (single isomer, unassigned) [compound 0062] | 61.6 nM | 5.47 | 11.2 nM | 8.40 | 7.33 nM |
| COc1cc(OC)cc(-c2nc(-c3nc(-c4cn(CC(O)CC(F)(F)F)nc4C)cnc3N)cn(C)c2=O)c1 (single isomer, unassigned) [compound 0063] | 70.8 nM | 4.39 | 16.1 nM | 5.78 | 12.3 nM |
| COc1cc(OC)cc(-c2nc(-c3nc(-c4cnn(CC(O)CC(F)(F)F)c4C)cnc3N)cn(C)c2=O)c1 (single isomer, unassigned) [compound 0064] | 181 nM | 7.97 | 22.7 nM | 11.18 | 16.2 nM |
| COc1cc(OC)cc(-c2nc(-c3nc(-c4cnn(CC(O)CC(F)(F)F)c4C)cnc3N)cn(C)c2=O)c1 (single isomer, unassigned) [compound 0065] | 407 nM | 7.56 | 53.9 nM | 9.01 | 45.2 nM |
| COc1cc(OC)cc(-c2nc(-c3nc(-c4cn(C)nc4C)cnc3N)cn(C)c2=O)c1 [Hydrochloride salt of 0023] | 164 nM | 5.11 | 32.1 nM | 5.52 | 29.8 nM |
| COc1cc(OC)cc(-c2nc(-c3nc(-c4cnc5c(c4)CC(=O)N5C)cnc3N)cn(C)c2=O)c1 [Hydrochloride salt of 0033] | 2280 nM | 7.27 | 314 nM | 19.15 | 119 nM |
| COc1cc(OC)cc(-c2nc(-c3nc(-c4cccnc4)cnc3N)cn(C)c2=O)c1 [Trifluoroacetate salt of 0018] | 727 nM | 48.27 | 15.1 nM | 89.67 | 8.11 nM |
| COc1cc(OC)c(F)c(-c2nc(-c3nc(-c4cn(C)nc4C)cnc3N)cn(C)c2=O)c1 [Trifluoroacetate salt of 0029] | 2.33 nM | 4.14 | 0.56 nM | 1.52 | 1.54 nM |
| COc1cc(OC)cc(-c2nc(-c3nc(-c4cnn(C5CCN(C)CC5)c4C)cnc3N)cn(C)c2=O)c1 [Trifluoroacetate salt of 0031] | 183 nM | 4.15 | 44 nM | 6.57 | 27.8 nM |
| COc1cc(OC)c(Cl)c(-c2nc(-c3nc(-c4ccc(C5CCN(C)CC5)nc4)cnc3N)cn(C)c2=O)c1 [Trifluoroacetate salt of 0060] | 3.08 nM | 5.78 | 0.533 nM | 3.26 | 0.944 nM |
| COc1cc(OC)cc(-c2nc(-c3nc(-c4cnn(C)c4)cnc3N)cn(C)c2=O)c1 [compound 0017] | 78.7 nM | 8.95 | 8.79 nM | 12.48 | 6.31 nM |
| COc1cc(OC)cc(-c2nc(-c3nc(-c4cn(C5CCNCC5)nc4C)cnc3N)cn(C)c2=O)c1 [compound 0028] | 54 nM | 7.05 | 7.66 nM | 5.12 | 10.5 nM |
| COCCN1CCC(n2cc(-c3cnc(N)c(-c4cn(C)c(=O)c(-c5cc(OC)cc(OC)c5)n4)n3)c(C)n2)CC1 [compound 0035] | 29.3 nM | 5.02 | 5.83 nM | 5.81 | 5.04 nM |
| CCNC(=O)c1ccc(-c2cnc(N)c(-c3cn(C)c(=O)c(-c4cc(OC)cc(OC)c4)n3)n2)cn1 [compound 0038] | > 10000 nM | >68.4 | 146 nM | >978.5 | 10.2 nM |

From patent US11286248B2, “Pyrazine-2(1H)-ketone compound acting as FGFR inhibitor” (ZHANGZHOU PIEN TZE HUANG PHARMACEUTICAL CO., LTD., priority 2018, dated 2022)
